Results from patent publication US10172858B2, “Combination pharmaceutical compositions and uses thereof” (Intellikine LLC, priority 2011, dated 2019).
Like-named read-outs stand apart in the source and are kept apart here.

Experiments:
PI3K β = PI3K β (Homo sapiens (Human), UniProt P42338); assay: PI3K β kinase assay; type: biochemical; conditions: Table 2
mTORC = mTORC (Homo sapiens (Human), UniProt P42345); assay: mTORC in vitro IC50 (Table 2); type: biochemical
Procedure: The compounds described herein and any other mTor inhibitors known in the art can be tested against recombinant mTOR (Invitrogen) in an assay containing 50 mM HEPES, pH 7.5, 1 mM EGTA, 10 mM MgCl2, 2.5 mM, 0.01% Tween, 10 μM ATP (2.5 μCi of μ-32P-ATP), and 3 μg/mL BSA. Rat recombinant PHAS-1/4EBP1 (Calbiochem; 2 mg/mL) is used as a substrate. Reactions are terminated by spotting onto nitrocellulose, which is washed with 1M NaCl/1% phosphoric acid (approximately 6 times, 5-10 minutes each). Sheets are dried and the transferred radioactivity quantitated by phosphorimaging.
For instance, one can use Invitrogen's LanthaScreen™ Kinase assay to test the inhibitors of mTOR disclosed herein. This assay is a time resolved FRET platform that measures the phosphorylation of GFP labeled 4EBP1 by mTOR kinase. The kinase reaction is performed in a white 384 well microtitre plate. The total reaction volume is 20 ul per well and the reaction buffer composition is 50 mM HEPES pH7.5, 0.01% Polysorbate 20, 1 mM EGTA, 10 mM MnCl2, and 2 mM DTT. In the first step, each well receives 2 ul of test compound in 20% dimethylsulphoxide resulting in a 2% DMSO final concentration. Next, 8 ul of mTOR diluted in reaction buffer is added per well for a 60 ng/ml final concentration. To start the reaction, 10 ul of an ATP/GFP-4EBP1 mixture (diluted in reaction buffer) is added per well for a final concentration of 10 μM ATP and 0.5 μM GFP-4EBP1. The plate is sealed and incubated for 1 hour at room temperature. […] The plate is sealed, incubated for 1 hour at room temperature, and then read on a plate reader set up for LanthaScreen™ TR-FRET. Data is analyzed and IC50s are generated using GraphPad Prism 5.

PC3 = PC3 tumor cell line proliferation assay; type: cell-based; conditions: Homo sapiens, PC-3; Table 2, in vitro IC50
Procedure: The assay is performed in a 96 well microtiter plate using Alamar Blue reduction. […] A compound disclosed herein is diluted in Tumor Cell Media and added in a 10 ul volume. […] A volume of 10 uL of Alamar Blue reagent is added to each well and plates are incubated for 3 hours at 37 C and 5% CO2. Alamar Blue fluoresce is read at 560Ex/590Em, and IC50 values are calculated using GraphPad Prism 5.

PI3K δ = PI3K δ (Homo sapiens (Human), UniProt O00329); assay: PI3K δ kinase assay; type: biochemical
PI3K α = PI3K α (Homo sapiens (Human), UniProt P42336); assay: PI3K α kinase assay; type: biochemical
PI3K γ = PI3K γ (Homo sapiens (Human), UniProt P48736); assay: PI3K γ kinase assay; type: biochemical
[1] = test system: Endometrial cancer cells containing mutations in PTEN and FGFR2; assay: Combination therapy in a tumor mouse model, tumor volume; type: in vivo, mice; conditions: Paclitaxel alone 20 mg/kg Q1W intravenous
Source text: Endometrial cancer cells containing mutations in PTEN and FGFR2 were implanted into mice. Mice having tumor volumes of approximately 150 mm^3 were grouped by treatment schedule, with the start of treatment designated as day 0. Control mice received no treatment.
In a further example, mice were implanted with endometrial cancer cells as above. Mice having tumor volumes of approximately 150 mm^3 were grouped by treatment schedule, with the start of treatment designated as day 0. Control mice received no treatment.

[2] = test system: HEC59 (paclitaxel resistant cell line) cells; assay: Growth of HEC59 cells (FIG. 9A); type: cell-based
pS6, cleaved PARP = assay: Western blot of pS6 and cleaved PARP (FIG. 6); type: cell-based; conditions: paclitaxel alone
[3] = test system: mTORC1-dependent NRDG1 phosphorylation; assay: Western blot of NRDG1 phosphorylation (FIG. 4B); type: cell-based

Chain of PI3K γ (P48736 whole entry, species assumed): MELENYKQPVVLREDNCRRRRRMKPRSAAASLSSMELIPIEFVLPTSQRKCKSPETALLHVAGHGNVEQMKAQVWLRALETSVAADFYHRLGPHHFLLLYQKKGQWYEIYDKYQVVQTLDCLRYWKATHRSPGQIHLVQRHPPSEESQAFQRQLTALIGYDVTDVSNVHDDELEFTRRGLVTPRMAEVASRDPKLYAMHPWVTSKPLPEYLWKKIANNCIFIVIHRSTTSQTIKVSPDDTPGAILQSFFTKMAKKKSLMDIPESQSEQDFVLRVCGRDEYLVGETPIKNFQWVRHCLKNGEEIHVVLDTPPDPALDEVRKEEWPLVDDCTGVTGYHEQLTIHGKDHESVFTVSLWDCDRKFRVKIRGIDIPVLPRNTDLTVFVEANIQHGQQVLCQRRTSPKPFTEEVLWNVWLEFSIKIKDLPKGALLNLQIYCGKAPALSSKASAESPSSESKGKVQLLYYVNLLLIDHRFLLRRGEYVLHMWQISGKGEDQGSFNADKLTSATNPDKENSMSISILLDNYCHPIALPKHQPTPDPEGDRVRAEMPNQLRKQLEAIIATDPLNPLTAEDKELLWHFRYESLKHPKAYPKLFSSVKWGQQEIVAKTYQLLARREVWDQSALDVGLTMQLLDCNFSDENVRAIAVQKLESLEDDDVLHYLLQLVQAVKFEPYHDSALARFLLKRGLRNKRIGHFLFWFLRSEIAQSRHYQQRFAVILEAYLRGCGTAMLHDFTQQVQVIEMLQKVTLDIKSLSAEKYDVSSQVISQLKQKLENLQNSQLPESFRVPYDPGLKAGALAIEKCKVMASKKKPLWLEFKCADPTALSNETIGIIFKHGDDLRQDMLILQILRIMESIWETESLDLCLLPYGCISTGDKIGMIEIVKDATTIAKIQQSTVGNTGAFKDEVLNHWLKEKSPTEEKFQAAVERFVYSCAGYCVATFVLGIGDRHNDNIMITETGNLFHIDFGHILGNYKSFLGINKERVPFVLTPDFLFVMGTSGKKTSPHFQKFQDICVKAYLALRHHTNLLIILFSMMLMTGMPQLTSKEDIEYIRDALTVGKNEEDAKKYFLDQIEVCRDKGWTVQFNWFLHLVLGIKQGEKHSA
Chain of PI3K δ (O00329 whole entry, species assumed): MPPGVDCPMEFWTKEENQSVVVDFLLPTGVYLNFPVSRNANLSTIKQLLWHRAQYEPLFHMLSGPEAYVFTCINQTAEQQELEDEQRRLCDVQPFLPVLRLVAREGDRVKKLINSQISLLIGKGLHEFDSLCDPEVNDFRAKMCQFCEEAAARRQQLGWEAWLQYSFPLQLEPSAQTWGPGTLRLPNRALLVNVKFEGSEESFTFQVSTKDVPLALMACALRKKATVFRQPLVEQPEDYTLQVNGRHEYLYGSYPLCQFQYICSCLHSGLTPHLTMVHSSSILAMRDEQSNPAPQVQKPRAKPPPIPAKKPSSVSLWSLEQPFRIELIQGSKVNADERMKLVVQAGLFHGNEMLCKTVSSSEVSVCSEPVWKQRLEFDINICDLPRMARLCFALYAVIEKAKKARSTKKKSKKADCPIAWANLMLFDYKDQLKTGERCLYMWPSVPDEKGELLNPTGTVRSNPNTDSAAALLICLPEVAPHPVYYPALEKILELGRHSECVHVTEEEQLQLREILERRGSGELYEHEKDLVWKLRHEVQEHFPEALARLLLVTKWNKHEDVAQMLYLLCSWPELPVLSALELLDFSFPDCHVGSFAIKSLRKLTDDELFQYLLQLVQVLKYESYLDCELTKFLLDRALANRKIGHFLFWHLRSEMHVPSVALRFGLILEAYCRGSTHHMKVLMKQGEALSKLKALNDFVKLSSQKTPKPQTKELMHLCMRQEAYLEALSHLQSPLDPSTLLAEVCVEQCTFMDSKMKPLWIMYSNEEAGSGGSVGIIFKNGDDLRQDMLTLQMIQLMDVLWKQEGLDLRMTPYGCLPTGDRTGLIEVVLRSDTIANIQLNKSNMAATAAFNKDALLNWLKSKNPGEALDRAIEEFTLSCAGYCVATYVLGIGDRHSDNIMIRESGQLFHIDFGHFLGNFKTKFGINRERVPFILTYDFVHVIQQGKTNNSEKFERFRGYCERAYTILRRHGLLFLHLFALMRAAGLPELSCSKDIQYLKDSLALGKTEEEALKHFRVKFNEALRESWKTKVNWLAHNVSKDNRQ
Chain of PI3K δ (P27986 whole entry partner, species assumed): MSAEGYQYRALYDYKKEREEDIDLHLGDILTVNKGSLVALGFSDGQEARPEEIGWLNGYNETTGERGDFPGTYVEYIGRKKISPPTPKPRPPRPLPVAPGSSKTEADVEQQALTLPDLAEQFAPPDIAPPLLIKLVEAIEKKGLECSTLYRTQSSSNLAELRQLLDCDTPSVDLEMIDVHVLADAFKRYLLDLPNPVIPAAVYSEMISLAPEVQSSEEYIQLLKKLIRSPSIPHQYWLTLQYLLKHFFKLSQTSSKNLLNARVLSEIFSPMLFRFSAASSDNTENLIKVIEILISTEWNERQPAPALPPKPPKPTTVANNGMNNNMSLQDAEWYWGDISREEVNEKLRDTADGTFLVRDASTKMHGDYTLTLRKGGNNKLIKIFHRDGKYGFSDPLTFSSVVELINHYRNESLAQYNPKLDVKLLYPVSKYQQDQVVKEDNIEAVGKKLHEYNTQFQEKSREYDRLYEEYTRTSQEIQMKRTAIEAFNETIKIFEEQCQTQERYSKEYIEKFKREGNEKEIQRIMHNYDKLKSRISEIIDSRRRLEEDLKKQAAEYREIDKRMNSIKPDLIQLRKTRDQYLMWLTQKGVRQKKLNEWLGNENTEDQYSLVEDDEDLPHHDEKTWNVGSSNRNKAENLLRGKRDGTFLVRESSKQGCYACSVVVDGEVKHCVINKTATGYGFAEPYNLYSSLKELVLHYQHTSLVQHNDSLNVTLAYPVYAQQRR
Chain of mTORC (P42345 1360-2549): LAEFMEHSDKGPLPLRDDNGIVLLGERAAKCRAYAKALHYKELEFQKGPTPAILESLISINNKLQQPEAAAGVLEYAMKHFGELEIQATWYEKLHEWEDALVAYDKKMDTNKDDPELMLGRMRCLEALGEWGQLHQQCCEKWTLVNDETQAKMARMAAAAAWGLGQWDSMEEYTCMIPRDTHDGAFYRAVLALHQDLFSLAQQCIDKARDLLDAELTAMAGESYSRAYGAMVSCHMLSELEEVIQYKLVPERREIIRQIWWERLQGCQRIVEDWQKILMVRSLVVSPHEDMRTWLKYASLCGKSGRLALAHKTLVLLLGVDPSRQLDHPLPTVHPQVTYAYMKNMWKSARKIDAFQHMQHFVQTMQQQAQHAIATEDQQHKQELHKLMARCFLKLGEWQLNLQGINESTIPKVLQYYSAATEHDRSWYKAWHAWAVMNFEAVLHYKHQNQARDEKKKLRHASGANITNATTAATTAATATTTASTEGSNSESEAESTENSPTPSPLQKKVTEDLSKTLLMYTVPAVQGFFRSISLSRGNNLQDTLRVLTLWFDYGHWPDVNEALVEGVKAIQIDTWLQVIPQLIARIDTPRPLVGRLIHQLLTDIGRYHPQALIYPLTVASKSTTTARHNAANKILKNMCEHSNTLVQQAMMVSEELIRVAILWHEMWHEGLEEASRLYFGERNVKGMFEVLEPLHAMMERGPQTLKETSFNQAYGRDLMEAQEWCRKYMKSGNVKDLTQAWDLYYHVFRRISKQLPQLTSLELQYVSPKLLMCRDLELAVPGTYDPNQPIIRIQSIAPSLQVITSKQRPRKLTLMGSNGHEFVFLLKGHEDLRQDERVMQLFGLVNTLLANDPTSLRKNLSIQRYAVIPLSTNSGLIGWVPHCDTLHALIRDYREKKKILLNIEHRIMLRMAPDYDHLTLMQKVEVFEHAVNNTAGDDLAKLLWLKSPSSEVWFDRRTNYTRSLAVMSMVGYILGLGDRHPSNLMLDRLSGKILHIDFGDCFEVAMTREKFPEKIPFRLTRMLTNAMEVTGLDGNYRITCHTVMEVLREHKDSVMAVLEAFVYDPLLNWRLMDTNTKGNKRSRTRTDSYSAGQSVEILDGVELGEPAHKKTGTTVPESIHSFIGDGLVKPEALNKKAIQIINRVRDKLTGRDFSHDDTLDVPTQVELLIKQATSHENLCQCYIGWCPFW

| Structure (SMILES) | IC50 (PI3K β) [nM] | IC50 (mTORC) [nM] | IC50 (PI3K δ; Table 2) [nM] | IC50 (PI3K α; Table 2) [nM] | IC50 (PI3K γ; Table 2) [nM] | other results |
| --- | --- | --- | --- | --- | --- | --- |
| CCOC(=O)Cn1nc(-c2cc3cc(O)ccc3[nH]2)c2c(N)ncnc21 [Compound 28] | > 500 | < 500 | > 500 | > 500 |  | IC50 (PC3): > 500 nM |
| CC(=O)N1CCC(n2nc(-c3cc4cc(O)ccc4[nH]3)c3c(N)ncnc32)CC1 [Compound 30] | > 500 | < 25 | > 500 |  |  | IC50 (PC3): > 500 nM; IC50 (PI3K α): > 500 nM |
| Nc1ncnc2c1c(-c1cc3cc(O)ccc3[nH]1)nn2C1CCN(C(=O)C2CC2)CC1 [Compound 31] | > 500 | < 25 | < 500 |  |  | IC50 (PC3): > 500 nM; IC50 (PI3K α): > 500 nM |
| Nc1ncnc2c1c(-c1cc3cccc(O)c3[nH]1)nn2C1CCCC1 [Compound 36] |  | < 10 | < 500 | > 500 | < 100 | IC50 (PC3): < 100 nM |
| Nc1ncnc2c1c(-c1cc3cc(O)ccc3[nH]1)nn2Cc1cccnc1 [Compound 38] |  | < 500 | > 500 | > 500 |  | IC50 (PI3K γ): > 500 nM; IC50 (PC3): > 500 nM |
| CC(C)n1nc(-c2cc3c(Cl)ccc(O)c3[nH]2)c2c(N)ncnc21 [Compound 39] |  | < 10 | > 500 | > 500 | > 500 | IC50 (PC3): > 500 nM |
| COCCn1nc(-c2cc3cc(O)ccc3[nH]2)c2c(N)ncnc21 [Compound 40] |  | < 100 |  | > 500 | > 500 | IC50 (PC3): > 500 nM; IC50 (PI3K δ): > 500 nM |
| Nc1ncnc2c1c(-c1cc3cccc(O)c3[nH]1)nn2C1CCN(C(=O)C2CC2)CC1 [Compound 41] | > 500 | < 10 | > 500 | > 500 | < 50 | IC50 (PC3): > 500 nM |
| Nc1ncnc2c1c(-c1cc3cc(O)ccc3[nH]1)nn2C1CCOCC1 [Compound 42] | > 500 | < 5 | < 100 |  |  | IC50 (PC3): > 500 nM; IC50 (PI3K α): > 500 nM |
| CNC(=O)CCn1nc(-c2cc3cc(O)ccc3[nH]2)c2c(N)ncnc21 [Compound 43] | > 500 | > 500 | > 500 | > 500 |  |  |
| Cc1nccn1CCn1nc(-c2cc3cc(O)ccc3[nH]2)c2c(N)ncnc21 [Compound 44] | > 500 | < 100 |  | > 500 |  | IC50 (PI3K δ): > 500 nM |
| Nc1ncnc2c1c(-c1cc3c(Cl)cccc3[nH]1)nn2C1CCOCC1 [Compound 48] | > 500 | < 50 | > 500 | > 500 | > 500 |  |
| Nc1ncnc2c1c(-c1cc3cc(O)ccc3[nH]1)nn2C1CC(N2CCOCC2)C1 (stereo not drawn) [Compound 49] | > 500 | < 10 | < 500 |  | < 500 | IC50 (PI3K α): > 500 nM |
| CC(C)n1nc(-c2cc3cccc(Cl)c3[nH]2)c2c(N)ncnc21 [Compound 50] | > 500 | < 50 | < 500 | > 500 | < 500 |  |
| Nc1ncnc2c1c(-c1cc3cccc(Cl)c3[nH]1)nn2C1CCOCC1 [Compound 51] | > 500 | < 50 | < 500 | > 500 | < 500 |  |
| CN1CCN(C2CC(n3nc(-c4cc5cc(O)ccc5[nH]4)c4c(N)ncnc43)C2)CC1 (stereo not drawn) [Compound 52] | > 500 | < 500 | < 500 |  | > 500 | IC50 (PI3K α): > 500 nM |
| Nc1ncnc2c1c(-c1cc3cc(O)ccc3[nH]1)nn2C1CC(=O)C1 [Compound 53] | > 500 | < 100 |  | > 500 | > 500 |  |
| Nc1ncnc2c1c(-c1cc3cc(O)ccc3[nH]1)nn2C1CC(O)C1 (stereo not drawn) [Compound 54] | > 500 | < 25 |  | > 500 | > 500 |  |
| CC(C)N1CCC(n2nc(-c3cc4cc(O)ccc4[nH]3)c3c(N)ncnc32)CC1 [Compound 55] | > 500 | < 500 |  | > 500 | > 500 |  |

| Structure (SMILES) | IC50 (PI3K β) [nM] | IC50 (mTORC) [nM] | IC50 (PI3K δ; Table 2) [nM] | IC50 (PI3K α; Table 2) [nM] | IC50 (PI3K γ; Table 2) [nM] | other results |
| --- | --- | --- | --- | --- | --- | --- |
| CC(C)N1CCC(n2nc(-c3cc4cc(O)cc(Cl)c4[nH]3)c3c(N)ncnc32)CC1 [Compound 56] | > 500 | > 500 |  | > 500 | > 500 |  |
| Nc1ncnc2c1c(-c1cc3cc(O)ccc3[nH]1)nn2C1CCC(N2CCOCC2)CC1 (stereo not drawn) [Compound 57] | > 500 | < 25 |  | > 500 | > 500 |  |
| CN1CCN(C2CCC(n3nc(-c4cc5cc(O)ccc5[nH]4)c4c(N)ncnc43)CC2)CC1 (stereo not drawn) [Compound 58] | > 500 | > 500 |  |  | > 500 | IC50 (PI3K α): > 500 nM |
| COc1ccc2cc(-c3nn(C4CCOCC4)c4ncnc(N)c34)[nH]c2c1 [Compound 59] | > 500 | > 500 |  | > 500 | > 500 |  |
| Nc1ncnc2c1c(-c1cc3ccc(O)cc3[nH]1)nn2C1CCOCC1 [Compound 60] | > 500 | < 100 |  | > 500 | < 100 |  |
| COc1ccc(Cl)c2cc(-c3nn(C4CCOCC4)c4ncnc(N)c34)[nH]c12 [Compound 61] | > 500 | < 25 | > 500 | > 500 | > 500 |  |
| Nc1ncnc2c1c(-c1cc3cccc(O)c3[nH]1)nn2C1CCOCC1 [Compound 62] | > 500 | < 5 | < 100 | > 500 | > 500 |  |
| COc1cccc2cc(-c3nn(C4CCOCC4)c4ncnc(N)c34)[nH]c12 [Compound 63] | > 500 | < 5 | < 25 |  | < 25 | IC50 (PI3K α): < 500 nM |
| CC(C)N1CCC(n2nc(-c3cc4cccc(O)c4[nH]3)c3c(N)ncnc32)CC1 [Compound 64] | > 500 | < 25 | < 500 | > 500 | < 500 |  |
| CC(=O)N1CCC(n2nc(-c3cc4ccc(O)cc4[nH]3)c3c(N)ncnc32)CC1 [Compound 65] | > 500 | < 10 | < 25 | < 50 | < 25 |  |
| COc1cccc2cc(-c3nn(C4CCN(C(=O)C5CC5)CC4)c4ncnc(N)c34)[nH]c12 [Compound 66] | > 500 | > 500 | > 500 | > 500 | > 500 |  |
| COc1cc(Cl)c2[nH]c(-c3nn(C4CCOCC4)c4ncnc(N)c34)cc2c1 [Compound 67] | > 500 | > 500 | > 500 | > 500 | > 500 |  |
| Nc1ncnc2c1c(-c1cc3cc(O)cc(Cl)c3[nH]1)nn2C1CCOCC1 [Compound 68] | > 500 | < 5 | < 25 | < 500 | < 50 |  |
| CC(=O)N1CCC(n2nc(-c3cc4c(Cl)ccc(O)c4[nH]3)c3c(N)ncnc32)CC1 [Compound 69] | > 500 | < 5 |  | > 500 | > 500 | IC50 (PI3K δ): < 500 nM |
| CC(=O)N1CCC(n2nc(-c3cc4cc(O)cc(Cl)c4[nH]3)c3c(N)ncnc32)CC1 [Compound 70] | > 500 | < 5 | < 25 | < 500 | < 100 |  |
| CC(C)N1CCC(n2nc(-c3cc4c(Cl)ccc(O)c4[nH]3)c3c(N)ncnc32)CC1 [Compound 71] | > 500 | < 100 |  | > 500 | > 500 | IC50 (PI3K δ): > 500 nM |
| CC(=O)O[C@H]1C(=O)[C@@]2(C)[C@H]([C@H](OC(=O)c3ccccc3)[C@]3(O)C[C@H](OC(=O)[C@H](O)[C@@H](NC(=O)c4ccccc4)c4ccccc4)C(C)=C1C3(C)C)[C@]1(OC(C)=O)CO[C@@H]1C[C@@H]2O [Paclitaxel] |  |  |  |  |  | increase in average tumor volume by day 22 [1]: 17%; average tumor volume by day 22 ([1]; from about 150 mm^3 at day 0): about 175 mm^3; inhibition of the growth of HEC59 cells [2]: partial inhibition; pS6 level (pS6, cleaved PARP): induction of pS6 |
| CO[C@H]1C[C@@H]2CC[C@@H](C)[C@@](O)(O2)C(=O)C(=O)N2CCCC[C@H]2C(=O)O[C@H]([C@H](C)C[C@@H]2CC[C@@H](O)[C@H](OC)C2)CC(=O)[C@H](C)/C=C(\C)[C@@H](O)[C@@H](OC)C(=O)[C@H](C)C[C@H](C)/C=C/C=C/C=C/1C [rapamycin] |  |  |  |  |  | sensitivity of mTORC1-dependent NRDG1 phosphorylation [3]: not |
